# Measured values reported in patent US20060166236A1, “Allosteric enzyme coupled immunoassay (AECIA)” (priority 2004, published 2006).
# Key:
# [1] = biological target: T1, potato tuber PPi-PFK (pyrophosphate-dependent fructose-6-phosphate kinase, EC2.7.1.90) (Solanum tuberosum, UniProt P21342+P21343); test: Stimulation assay of potato tuber PPi-PFK by Fructose 2,6 Pi; assay type: biochemical; conditions: in the presence of 1 mM fructose 6-phosphate and 2.5 mM PPi; FIG. 3; read-out: half-maximal effect (activation of potato tuber PPi-PFK)
# T1 construct: Peeled potato tubers (330 g) were homogenized in a blendor; from tissue; host or cells: potato tubers
# T1 sequence (P21342 1-616): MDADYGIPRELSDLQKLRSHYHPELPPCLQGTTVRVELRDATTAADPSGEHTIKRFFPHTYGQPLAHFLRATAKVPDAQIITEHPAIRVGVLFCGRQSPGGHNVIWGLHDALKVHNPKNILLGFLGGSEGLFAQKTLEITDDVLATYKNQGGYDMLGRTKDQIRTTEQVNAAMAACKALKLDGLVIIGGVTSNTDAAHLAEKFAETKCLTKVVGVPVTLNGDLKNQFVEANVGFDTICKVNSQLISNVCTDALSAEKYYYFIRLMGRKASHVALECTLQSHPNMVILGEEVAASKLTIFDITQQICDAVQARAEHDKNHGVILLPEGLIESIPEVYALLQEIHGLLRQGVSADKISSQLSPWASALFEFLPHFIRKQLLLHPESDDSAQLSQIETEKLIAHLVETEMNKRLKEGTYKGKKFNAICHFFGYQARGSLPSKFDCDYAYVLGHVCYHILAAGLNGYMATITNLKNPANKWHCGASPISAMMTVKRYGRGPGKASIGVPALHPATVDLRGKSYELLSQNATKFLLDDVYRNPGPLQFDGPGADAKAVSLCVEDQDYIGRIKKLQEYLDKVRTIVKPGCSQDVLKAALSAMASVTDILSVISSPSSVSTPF
# T1 sequence (P21343 1-569): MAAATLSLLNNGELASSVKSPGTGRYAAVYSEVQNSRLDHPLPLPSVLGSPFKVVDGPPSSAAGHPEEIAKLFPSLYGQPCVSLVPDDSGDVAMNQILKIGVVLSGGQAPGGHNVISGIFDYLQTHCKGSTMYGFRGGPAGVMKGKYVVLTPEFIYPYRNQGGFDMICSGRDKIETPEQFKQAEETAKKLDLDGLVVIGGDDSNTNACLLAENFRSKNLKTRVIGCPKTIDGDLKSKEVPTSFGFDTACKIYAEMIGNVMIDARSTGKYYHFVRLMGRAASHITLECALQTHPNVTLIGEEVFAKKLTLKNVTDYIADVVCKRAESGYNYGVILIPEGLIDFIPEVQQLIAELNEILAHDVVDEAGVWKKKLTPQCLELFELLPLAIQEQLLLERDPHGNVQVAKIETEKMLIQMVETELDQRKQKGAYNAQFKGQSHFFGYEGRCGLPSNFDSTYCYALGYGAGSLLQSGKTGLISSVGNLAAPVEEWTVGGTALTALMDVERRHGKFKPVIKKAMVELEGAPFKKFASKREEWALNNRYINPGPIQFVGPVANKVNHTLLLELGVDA
# Description: Potato tubers PPi-PFK was purified according to the procedure described in Van Schafingen et al., Eur. J. Biochem., 129:191-195 (1982). Peeled potato tubers (330 g) were homogenized in a blendor with 2 volume of ice-cold 20 mM Hepes pH8.2 containing 20 mM potassium acetate and 2 mM dithiothreitol. The homogenate was filtered through cheese cloth. Solid sodium pyrophosphate and 1 mM MgCl2 were added to the filtrate to reach 2 mM and the pH was adjusted to 8.2 at 0° C. The mixture was brought to 59° C. by shaking in a water bath adjusted to 70° C. and maintained for 5 min in a water bath at 59° C.; it was then cooled and brought to pH 7.1 at 0° C. All subsequent steps were carried out at 0-4° C. Six (6) g of poly(ethylene glycol) 6000 were added per 100 ml of solution and after mixing for 15 min, the preparation was allowed to stand for 10 min and then centrifuged for 10 min at 4000×g; 8 g of poly(ethylene glycol) were then added per 100 ml of the resulting supernatant (700 ml) which was mixed and centrifuged as described above. The resulting pellet was dissolved in 40 ml of a solution containing 20 mM Tris, pH8.2, 20 mM KCl, and 2 mM dithiothreitol and applied to a column (25×120 mm) of DEAE-cellulose equilibrated with the same buffer. The column was washed with 100 ml of buffer and developed with a gradient of KCl (20-400 mM) in the same dithiothreitol/Tris buffer. […]
# [2] = biological target: T2, rat liver PFK (ATP-dependent fructose-6-phosphate kinase, EC2.7.1.11) (Rattus norvegicus, UniProt P30835); test: Stimulation assay of rat liver phosphofructokinase by Fructose 2,6 Pi; assay type: biochemical; conditions: in the presence of 2 mM fructose 6-phosphate and 1 mM AMP; pH 7.1, 22° C.; 3 mM ATP; FIG. 4; read-out: half-maximal effect (activation of rat liver PFK)
# T2 construct: Fresh livers from rats were homogenized in a homogenizer with 3 volumes of chilled buffer; from tissue; host or cells: rat liver
# T2 sequence (P30835 1-780): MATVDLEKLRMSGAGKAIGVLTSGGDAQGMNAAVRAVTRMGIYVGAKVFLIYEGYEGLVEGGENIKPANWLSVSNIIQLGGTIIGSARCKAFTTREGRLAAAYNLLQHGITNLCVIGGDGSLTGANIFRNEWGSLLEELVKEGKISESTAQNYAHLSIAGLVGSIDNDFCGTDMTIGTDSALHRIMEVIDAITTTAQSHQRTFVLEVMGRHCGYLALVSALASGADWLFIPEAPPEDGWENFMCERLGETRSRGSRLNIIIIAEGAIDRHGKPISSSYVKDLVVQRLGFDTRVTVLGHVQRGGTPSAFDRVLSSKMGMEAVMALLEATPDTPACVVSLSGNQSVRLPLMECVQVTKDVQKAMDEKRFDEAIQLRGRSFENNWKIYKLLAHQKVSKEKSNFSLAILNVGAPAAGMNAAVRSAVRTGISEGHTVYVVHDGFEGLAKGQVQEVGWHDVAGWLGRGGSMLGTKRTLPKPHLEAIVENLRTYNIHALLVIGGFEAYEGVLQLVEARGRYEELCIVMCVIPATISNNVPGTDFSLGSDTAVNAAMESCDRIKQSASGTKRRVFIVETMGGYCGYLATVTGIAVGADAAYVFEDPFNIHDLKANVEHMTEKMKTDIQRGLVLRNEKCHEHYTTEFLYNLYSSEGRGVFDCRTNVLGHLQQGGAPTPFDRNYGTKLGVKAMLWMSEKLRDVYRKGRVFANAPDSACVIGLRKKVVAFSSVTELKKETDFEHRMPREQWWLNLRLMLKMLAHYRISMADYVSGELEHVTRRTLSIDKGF
# Description: ATP-dependent fructose-6-phosphate kinase (EC2.7.1.11) was purified from rat livers according to the procedures described in Reinhart and Lardy., Biochemistry, 19:1477-1484 (1980). The purification procedure includes a heat step, ammonium sulfate precipitation, and DEAE ion-exchange and gel filtration chromatography as follows:
# The assay was performed at pH 7.1 and 22° C. The incubation mixture contained 100 mM KCl, 1 mM NH4Cl, 0.15 mM NADH, 50 mM Hepes buffer, 50 μg/ml aldolase, 10 μg/ml glycerol-3-phosphate dehydrogenase, 1 μg/ml triose phosphate isomerase, 5 mM MgCl2, 1 mM AMP, 2 mM fructose 6-phosphate, and 0.2 mM Pi. The reaction was initiated by adding 3 mM ATP.
smiles,measurement,setting,value
"O=P(O)(O)OCC1OC(CO)(OP(=O)(O)O)C(O)C1O (centres unmarked) [fructose 2, 6 Pi, fructose-2,6-bisphosphate]",EC50,[1],~5.5 nM
same,EC50,[2],~40 nM
